Measurements published in US9988390B2, “Pyrimidone derivatives and their use in the treatment, amelioration or prevention of a viral disease” (F. Hoffmann-La Roche AG, priority 2015, dated 2018).
Structures can show the parent of a compound that is named as a salt. Where two headings read alike, the source gives them in different places.

Test system: influenza A virus (A/WSN/33 NanoLuc reporter virus) in A549 cells
Experiment: microbe, parasite or virus in culture
Assay type: cell-based
[1] = A549, 24 h, read-out: IC50 values of viral replication inhibition in a cell-based Luciferase Reporter Assay (LRA)

| Compound | IC50 [1] | IC50 (A549, isomers identified by X-ray analysis, read-out: IC50) |
| --- | --- | --- |
| COC(=O)Nc1nc(=O)c(O)c2n1[C@@H](C(c1ccccc1)c1ccccc1)CN(C(C)C)C2=O [Ia-56, Methyl N-[(4S)-4-benzhydryl-9-hydroxy-2-isopropyl-1,8-dioxo-3,4-dihydropyrazino[1,2-c]pyrimidin-6-yl]carbamate] | 200 nM | – |
| CC(C)Nc1nc(=O)c(O)c2n1[C@@H](C(c1ccccc1)c1ccccc1)CN(C(C)C)C2=O [Ia-35, (4S)-4-Benzhydryl-9-hydroxy-2-isopropyl-6-(isopropylamino)-3,4-dihydropyrazino[1,2-c]pyrimidine-1,8-dione] | 324 nM | – |
| COc1nc(=O)c(O)c2n1[C@@H](C1c3ccccc3CCc3ccccc31)CN(C(C)C)C2=O [Example 1a-8, (4S)-4-(10,11-Dihydro-5H-dibenzo[a,d][7]annulen-5-yl)-9-hydroxy-6-methoxy-2-(propan-2-yl)-3,4-dihydro-2H-pyrazino[1,2-c]pyrimidine-1,8-dione] | 6 nM | – |
| CC(C)N1C[C@H](C(c2ccccc2)c2ccccc2)n2c(-c3ccccc3)nc(=O)c(O)c2C1=O [Ia-42, (4S)-4-benzhydryl-9-hydroxy-2-isopropyl-6-phenyl-3,4-dihydropyrazino[1,2-c]pyrimidine-1,8-dione] | 126 nM | – |
| CC(=O)NCc1nc(=O)c(O)c2n1[C@@H](C(c1ccccc1)c1ccccc1)CN(C(C)C)C2=O [Ia-55, N-[[(4S)-4-Benzhydryl-9-hydroxy-2-isopropyl-1,8-dioxo-3,4-dihydropyrazino[1,2-c]pyrimidin-6-yl]methyl]acetamide] | 473 nM | – |
| CC(C)N1C[C@H](C2c3ccccc3CCc3ccccc32)n2c(-n3cnnc3)nc(=O)c(O)c2C1=O [Ia-46] | 55 nM | – |
| CC(C)N1C[C@H](C(c2ccccc2)c2ccccc2)n2c(CO)nc(=O)c(O)c2C1=O [Ia-74, (4S)-4-Benzhydryl-9-hydroxy-6-(hydroxymethyl)-2-isopropyl-3,4-dihydropyrazino[1,2-c]pyrimidine-1,8-dione] | 125 nM | – |
| CC(C)N1C[C@H](C2c3ccccc3CCc3ccccc32)n2c(S(C)(=O)=O)nc(=O)c(O)c2C1=O [Ia-76, (4S)-4-(6,11-Dihydro-5H-dibenzo[2,1-b:1′,2′-e][7]annulen-11-yl)-9-hydroxy-2-isopropyl-6-methylsulfonyl-3,4-dihydropyrazino[1,2-c]pyrimidine-1,8-dione] | 13 nM | – |
| CCS(=O)(=O)c1nc(=O)c(O)c2n1[C@@H](C(c1ccccc1)c1ccccc1)CN(C(C)C)C2=O [Ia-39, (4S)-4-Benzhydryl-6-ethylsulfonyl-9-hydroxy-2-isopropyl-3,4-dihydropyrazino[1,2-c]pyrimidine-1,8-dione] | 470 nM | – |
| CC(C)N1C[C@H](C(c2ccccc2)c2ccccc2)n2c(C(N)=O)nc(=O)c(O)c2C1=O [Ia-52, (4S)-4-Benzhydryl-9-hydroxy-2-isopropyl-1,8-dioxo-3,4-dihydropyrazino[1,2-c]pyrimidine-6-carboxamide] | 93 nM | – |
| CCSc1nc(=O)c(O)c2n1[C@@H](C(c1ccccc1)c1ccccc1)CN(C(C)C)C2=O [Ia-24, (4S)-4-Benzhydryl-6-ethylsulfanyl-9-hydroxy-2-isopropyl-3,4-dihydropyrazino[1,2-c]pyrimidine-1,8-dione] | 11900 nM | – |
| COc1nc(=O)c(O)c2n1[C@H]([C@@H]1c3ccccc3CSc3ccccc31)CN(C(C)C)C2=O (single isomer, unassigned) [Example 15] | – | 34 nM |
| CC(C)N1C[C@H](C2c3ccccc3CCc3ccccc32)n2c(-n3ccnc3)nc(=O)c(O)c2C1=O [Ia-45, (4S)-4-(6,11-Dihydro-5H-dibenzo[2,1-b:1′,2′-e][7]annulen-11-yl)-9-hydroxy-6-imidazol-1-yl-2-isopropyl-3,4-dihydropyrazino[1,2-c]pyrimidine-1,8-dione] | 62 nM | – |
| CC(C)N1C[C@H](C(c2ccccc2)c2ccccc2)n2c(C#N)nc(=O)c(O)c2C1=O [Ia-51, (4S)-4-Benzhydryl-9-hydroxy-2-isopropyl-1,8-dioxo-3,4-dihydropyrazino[1,2-c]pyrimidine-6-carbonitrile] | 368 nM | – |
| CCN1CC(C(c2ccccc2)c2ccccc2)n2c(OC)nc(=O)c(O)c2C1=O (stereo not shown) [Ia-64, 4-Benzhydryl-2-ethyl-9-hydroxy-6-methoxy-3,4-dihydropyrazino[1,2-c]pyrimidine-1,8-dione] | 50 nM | – |
| CCOc1nc(=O)c(O)c2n1[C@@H](C(c1ccccc1)c1ccccc1)CN(C(C)C)C2=O [Example 1a-7, (4S)-4-Benzhydryl-6-ethoxy-9-hydroxy-2-isopropyl-3,4-dihydropyrazino[1,2-c]-pyrimidine-1,8-dione] | 69 nM | – |
| CSc1nc(=O)c(O)c2n1[C@@H](C(c1ccccc1)c1ccccc1)CN(C(C)C)C2=O [Ia-23, (4S)-4-Benzhydryl-9-hydroxy-2-isopropyl-6-methylsulfanyl-3,4-dihydropyrazino[1,2-c]pyrimidine-1,8-dione] | 36 nM | – |

| Compound | IC50 [1] | IC50 (A549, isomers identified by X-ray analysis, read-out: IC50) |
| --- | --- | --- |
| CC(C)N1C[C@H](C(c2ccccc2)c2ccccc2)n2c(OCc3ccccc3)nc(=O)c(O)c2C1=O [Example 1a-13, (4S)-4-Benzhydryl-6-benzyloxy-9-hydroxy-2-isopropyl-3,4-dihydropyrazino[1,2-c]pyrimidine-1,8-dione] | 8320 nM | – |
| CC(C)N1C[C@H](C2c3ccccc3CCc3ccccc32)n2c([S+](C)[O-])nc(=O)c(O)c2C1=O (stereo partly drawn) [Ia-31, (4S)-4-(6,11-Dihydro-5H-dibenzo[2,1-b:1′,2′-e][7]annulen-11-yl)-9-hydroxy-2-isopropyl-6-methylsulfinyl-3,4-dihydropyrazino[1,2-c]pyrimidine-1,8-dione] | 15 nM | – |
| COc1nc(=O)c(O)c2n1[C@@H]([C@H](c1ccccc1)c1ccc(Cl)cc1)CN(C(C)C)C2=O [Ia-72, (4S)-4-[(R)-(4-Chlorophenyl)-phenyl-methyl]-9-hydroxy-2-isopropyl-6-methoxy-3,4-dihydropyrazino[1,2-c]pyrimidine-1,8-dione] | 40 nM | – |
| CNC(=N)Nc1nc(=O)c(O)c2n1[C@@H](C(c1ccccc1)c1ccccc1)CN(C(C)C)C2=O [Ia-50, 1-[(4S)-4-Benzhydryl-9-hydroxy-2-isopropyl-1,8-dioxo-3,4-dihydropyrazino[1,2-c]pyrimidin-6-yl]-3-methyl-guanidine] | 1070 nM | – |
| CC(C)N1C[C@H](C(c2ccccc2)c2ccccc2)n2cnc(=O)c(O)c2C1=O [Ia-27, (4S)-4-Benzhydryl-9-hydroxy-2-isopropyl-3,4-dihydropyrazino[1,2-c]pyrimidine-1,8-dione] | 232 nM | – |
| CC(C)N1CC(C2c3ccccc3CCc3ccccc32)n2c(S)nc(=O)c(O)c2C1=O (stereo not shown) [Ia-75, 4-(6,11-Dihydro-5H-dibenzo[2,1-b:1′,2′-e][7]annulen-11-yl)-9-hydroxy-2-isopropyl-6-sulfanyl-3,4-dihydropyrazino[1,2-c]pyrimidine-1,8-dione] | 45 nM | – |
| COc1ccc(CNc2nc(=O)c(O)c3n2[C@@H](C(c2ccccc2)c2ccccc2)CN(C(C)C)C3=O)cc1 [Example 1a-2, (4S)-4-Benzhydryl-9-hydroxy-2-isopropyl-6-[(4-methoxyphenyl)methylamino]-3,4-dihydropyrazino[1,2-c]pyrimidine-1,8-dione formate] | 2070 nM | – |
| COc1nc(=O)c(O)c2n1C(C(c1ccccc1)c1ccccc1Br)CN(C)C2=O (stereo not shown) [Ia-70, 4-[(2-Bromophenyl)-phenyl-methyl]-9-hydroxy-6-methoxy-2-methyl-3,4-dihydropyrazino[1,2-c]pyrimidine-1,8-dione] | 27 nM | – |
| CC(C)N1C[C@H](C(c2ccccc2)c2ccccc2)n2c(NCc3ccccc3)nc(=O)c(O)c2C1=O [Example 1a-1, (4S)-4-Benzhydryl-6-(benzylamino)-9-hydroxy-2-isopropyl-3,4-dihydropyrazino[1,2-c]pyrimidine-1,8-dione] | 153 nM | – |
| CC(C)N1C[C@H](C(c2ccccc2)c2ccccc2)n2c([S+](C)[O-])nc(=O)c(O)c2C1=O (stereo partly drawn) [Ia-26, (4S)-4-Benzhydryl-9-hydroxy-2-isopropyl-6-methylsulfinyl-3,4-dihydropyrazino[1,2-c]pyrimidine-1,8-dione] | 127 nM | – |
| CC(=O)Nc1nc(=O)c(O)c2n1[C@@H](C(c1ccccc1)c1ccccc1)CN(C(C)C)C2=O [Example 1a-16, N-[(4S)-4-Benzhydryl-9-hydroxy-2-isopropyl-1,8-dioxo-3,4-dihydropyrazino[1,2-c]pyrimidin-6-yl]acetamide] | 23 nM | – |
| COc1nc(=O)c(O)c2n1C(C(c1ccc(Cl)cc1)c1ccc(Cl)cc1)CN(C(C)C)C2=O (stereo not shown) [Ia-63, 4-[Bis(4-chlorophenyl)methyl]-9-hydroxy-2-isopropyl-6-methoxy-3,4-dihydropyrazino[1,2-c]pyrimidine-1,8-dione] | 302 nM | – |
| COc1nc(=O)c(O)c2n1[C@@H](C(c1ccccc1)c1ccccc1)CN([C@H](C)C(F)(F)F)C2=O [Ia-66, (4S)-4-Benzhydryl-9-hydroxy-6-methoxy-2-[(1R)-2,2,2-trifluoro-1-methyl-ethyl]-3,4-dihydropyrazino[1,2-c]pyrimidine-1,8-dione] | 26 nM | – |
| CCCCOc1nc(=O)c(O)c2n1[C@@H](C(c1ccccc1)c1ccccc1)CN(C(C)C)C2=O [Example 1a-15, (4S)-4-Benzhydryl-6-butoxy-9-hydroxy-2-isopropyl-3,4-dihydropyrazino[1,2-c]pyrimidine-1,8-dione] | 15300 nM | – |
| CC(C)N1C[C@H](C(c2ccccc2)c2ccccc2)n2c(-n3cnnc3)nc(=O)c(O)c2C1=O [Ia-44, (4S)-4-Benzhydryl-9-hydroxy-2-isopropyl-6-(1,2,4-triazol-4-yl)-3,4-dihydropyrazino[1,2-c]pyrimidine-1,8-dione] | 130 nM | – |
| COc1nc(=O)c(O)c2n1[C@@H](C(c1ccc(F)cc1)c1ccc(F)cc1)CN(C(C)C)C2=O [Ia-71, (4S)-4-[Bis(4-fluorophenyl)methyl]-9-hydroxy-2-isopropyl-6-methoxy-3,4-dihydropyrazino[1,2-c]pyrimidine-1,8-dione] | 47 nM | – |
| COc1nc(=O)c(O)c2n1C(C1c3cccc(F)c3CCc3c(F)cccc31)CN(C(C)C)C2=O (stereo not shown) [Example 1a-20, 4-(1,9-Difluoro-10,11-dihydro-5H-dibenzo[a,d][7]annulen-5-yl)-9-hydroxy-6-methoxy-2-(propan-2-yl)-3,4-dihydro-2H-pyrazino[1,2-c]pyrimidine-1,8-dione] | 16 nM | – |
